Laboratory results as given in PubChem BioAssay (NCI).
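Briefly, cells in 96-well plates were exposed to five compound concentrations for 48 h, and endpoints were estimated by linear interpolation. At the GI50, growth is halved. TGI: concentration producing complete growth inhibition.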

Legend:
Test in all cases: inhibition of tumour cell growth, NCI panel, 48 h
[1] = test system: 786-0 renal
[2] = test system: A498 renal
[3] = test system: A549 NSCLC
[4] = test system: ACHN renal
[5] = test system: BT-549 breast
[6] = test system: CAKI-1 renal
[7] = test system: CCRF-CEM leukemia
[8] = test system: COLO 205 colon
[9] = test system: DU-145 prostate
[10] = test system: EKVX NSCLC
[11] = test system: HCC-2998 colon
[12] = test system: HCT-116 colon
[13] = test system: HCT-15 colon
[14] = test system: HL-60(TB) leukemia
[15] = test system: HOP-62 NSCLC
[16] = test system: HOP-92 NSCLC
[17] = test system: HS 578T breast
[18] = test system: HT29 colon
[19] = test system: IGROV1 ovarian
[20] = test system: K-562 leukemia
[21] = test system: KM12 colon
[22] = test system: LOX IMVI melanoma
[23] = test system: M14 melanoma
[24] = test system: MALME-3M melanoma
[25] = test system: MCF7 breast
[26] = test system: MDA-MB-231 breast
[27] = test system: MDA-MB-435
[28] = test system: MDA-MB-468 breast
[29] = test system: MOLT-4 leukemia
[30] = test system: NCI-H226 lung
[31] = test system: NCI-H23 lung
[32] = test system: NCI-H460 lung
[33] = test system: NCI-H522 lung
[34] = test system: NCI/ADR-RES ovarian
[35] = test system: OVCAR-3 ovarian
[36] = test system: OVCAR-4 ovarian
[37] = test system: OVCAR-5 ovarian
[38] = test system: OVCAR-8 ovarian
[39] = test system: PC-3 prostate
[40] = test system: RPMI-8226 leukemia
[41] = test system: RXF 393 renal
[42] = test system: SF-268 CNS
[43] = test system: SF-295 CNS
[44] = test system: SF-539 CNS
[45] = test system: SK-MEL-2 melanoma
[46] = test system: SK-MEL-28 melanoma
[47] = test system: SK-MEL-5 melanoma
[48] = test system: SK-OV-3 ovarian
[49] = test system: SN12C renal
[50] = test system: SNB-19 CNS
[51] = test system: SNB-75 CNS
[52] = test system: SR leukemia
[53] = test system: SW-620 colon
[54] = test system: T-47D breast
[55] = test system: TK-10 renal
[56] = test system: U251 CNS
[57] = test system: UACC-257 melanoma
[58] = test system: UACC-62 melanoma
[59] = test system: UO-31 renal

## COc1ccc(CN2[C@@H](C(=O)NCc3ccc(C(=O)NO)cc3)Cc3c([nH]c4ccccc34)[C@@H]2C2CC2)cc1
[1]
  GI50: 3.98 µM
  TGI: 13 µM
[2]
  GI50: 2.77 µM
  TGI: 7.99 µM
[3]
  GI50: 3.54 µM
  TGI: 9.02 µM
[4]
  GI50: 3.52 µM
  TGI: 9.33 µM
[5]
  GI50: 4.99 µM
  TGI: 9.96 µM
[6]
  GI50: 2.39 µM
  TGI: 6.73 µM
[7]
  GI50: 0.996 µM
  TGI: > 19.8 µM
[8]
  GI50: 3.47 µM
  TGI: 8.03 µM
[9]
  GI50: 4.38 µM
  TGI: > 19.8 µM
[10]
  GI50: 3.2 µM
  TGI: 10.9 µM
[11]
  GI50: 2.6 µM
  TGI: 5.59 µM
[12]
  GI50: 2.08 µM
  TGI: > 19.8 µM
[13]
  GI50: 3.75 µM
  TGI: 10.5 µM
[14]
  GI50: 2.73 µM
  TGI: > 19.8 µM
[15]
  GI50: 3.48 µM
  TGI: 8.58 µM
[16]
  GI50: 2.62 µM
  TGI: 6.65 µM
[17]
  GI50: 1.85 µM
  TGI: 14.4 µM
[18]
  GI50: 4.84 µM
  TGI: > 19.8 µM
[19]
  GI50: 2.6 µM
  TGI: 5.78 µM
[20]
  GI50: 1.67 µM
  TGI: > 19.8 µM
[21]
  GI50: 3.51 µM
  TGI: 16.7 µM
[22]
  GI50: 2.37 µM
  TGI: 4.81 µM
[23]
  GI50: 4.07 µM
  TGI: > 19.8 µM
[24]
  GI50: 0.847 µM
  TGI: 4.17 µM
[25]
  GI50: 2.33 µM
  TGI: 12 µM
[26]
  GI50: 2.43 µM
  TGI: 7.52 µM
[27]
  GI50: 0.638 µM
  TGI: 2.67 µM
[28]
  GI50: 1 µM
  TGI: 4.34 µM
[29]
  GI50: 1.85 µM
  TGI: > 19.8 µM
[30]
  GI50: 3.41 µM
  TGI: 10.1 µM
[31]
  GI50: 2.75 µM
  TGI: 5.77 µM
[32]
  GI50: 3.14 µM
  TGI: 9.21 µM
[33]
  GI50: 0.964 µM
  TGI: 5.06 µM
[34]
  GI50: 4.05 µM
  TGI: 13.8 µM
[35]
  GI50: 3.41 µM
  TGI: 14.7 µM
[36]
  GI50: 4.74 µM
  TGI: > 19.8 µM
[37]
  GI50: 1.87 µM
  TGI: 6.05 µM
[38]
  GI50: 2.56 µM
  TGI: 9.71 µM
[39]
  GI50: 3.12 µM
  TGI: > 19.8 µM
[40]
  GI50: 2.92 µM
  TGI: > 19.8 µM
[41]
  GI50: 0.797 µM
  TGI: 4.09 µM
[42]
  GI50: 4.4 µM
  TGI: 13 µM
[43]
  GI50: 2.92 µM
  TGI: 6.05 µM
[44]
  GI50: 2.48 µM
  TGI: 5.71 µM
[45]
  GI50: 4.11 µM
  TGI: 12 µM
[46]
  GI50: 1.98 µM
  TGI: 5.88 µM
[47]
  GI50: 2.6 µM
  TGI: 5.25 µM
[48]
  GI50: 2.87 µM
  TGI: 6.97 µM
[49]
  GI50: 3.86 µM
  TGI: 13.4 µM
[50]
  GI50: 2.89 µM
  TGI: 6.8 µM
[51]
  GI50: 1.13 µM
  TGI: 5.68 µM
[52]
  GI50: > 19.8 µM
  TGI: > 19.8 µM
[53]
  GI50: 2.26 µM
  TGI: 8.03 µM
[54]
  GI50: 3.82 µM
  TGI: 12.6 µM
[55]
  GI50: 3.17 µM
  TGI: 10.1 µM
[56]
  GI50: 2.67 µM
  TGI: 6.78 µM
[57]
  GI50: 2.39 µM
  TGI: 9.74 µM
[58]
  GI50: 1.55 µM
  TGI: 4.6 µM
[59]
  GI50: 3 µM
  TGI: 5.72 µM

## O=c1[nH]c2ccccc2cc1CSc1ccc(Nc2nccc(-c3ccc(C(F)(F)F)cc3)n2)cc1
[1]
  GI50: 1.53 µM
  TGI: 3.29 µM
[2]
  GI50: 1.93 µM
  TGI: 3.84 µM
[3]
  GI50: 2.12 µM
  TGI: 10.1 µM
[4]
  GI50: 1.85 µM
  TGI: 10.8 µM
[5]
  GI50: 2.66 µM
  TGI: 17.1 µM
[6]
  GI50: 1.66 µM
  TGI: 7.13 µM
[7]
  GI50: 3.51 µM
  TGI: > 100 µM
[8]
  GI50: 9.82 µM
  TGI: 74.1 µM
[9]
  GI50: 13.2 µM
  TGI: > 100 µM
[10]
  GI50: 3.5 µM
  TGI: 40.5 µM
[11]
  GI50: 6.89 µM
  TGI: > 100 µM
[12]
  GI50: 0.0885 µM
  TGI: 11.6 µM
[13]
  GI50: 2.27 µM
  TGI: 69.7 µM
[14]
  GI50: > 100 µM
  TGI: > 100 µM
[15]
  GI50: 1.81 µM
  TGI: 4.45 µM
[16]
  GI50: 2.32 µM
  TGI: 15.2 µM
[17]
  GI50: 0.403 µM
  TGI: 4.64 µM
[18]
  GI50: 3.46 µM
  TGI: > 100 µM
[19]
  GI50: 17 µM
  TGI: 43.6 µM
[20]
  GI50: 13.9 µM
  TGI: > 100 µM
[21]
  GI50: 94.3 µM
  TGI: > 100 µM
[22]
  GI50: 3.63 µM
  TGI: 19.5 µM
[23]
  GI50: 16.8 µM
  TGI: 61.3 µM
[24]
  GI50: 6.51 µM
  TGI: 22.6 µM
[25]
  GI50: 4.55 µM
  TGI: > 100 µM
[26]
  GI50: 1.66 µM
  TGI: 9.04 µM
[27]
  GI50: 11.9 µM
  TGI: 55.4 µM
[28]
  GI50: 3.33 µM
  TGI: 18.2 µM
[29]
  GI50: 4.83 µM
  TGI: > 100 µM
[30]
  GI50: 1.52 µM
  TGI: 3.8 µM
[31]
  GI50: 4 µM
  TGI: 18.8 µM
[32]
  GI50: 0.0643 µM
  TGI: 1.53 µM
[33]
  GI50: 6.19 µM
  TGI: 28.7 µM
[34]
  GI50: 1.32 µM
  TGI: 6.21 µM
[35]
  GI50: 1.38 µM
  TGI: 3.58 µM
[36]
  GI50: 1.23 µM
  TGI: 3.95 µM
[37]
  GI50: 30.6 µM
  TGI: > 100 µM
[38]
  GI50: 1.94 µM
  TGI: 5.97 µM
[39]
  GI50: 6.77 µM
  TGI: 61.5 µM
[40]
  GI50: 61.6 µM
  TGI: > 100 µM
[41]
  GI50: 2.67 µM
  TGI: 13 µM
[42]
  GI50: 2.97 µM
  TGI: 20.9 µM
[43]
  GI50: 1.62 µM
  TGI: 5.72 µM
[44]
  GI50: 2.7 µM
  TGI: 10.9 µM
[45]
  GI50: 18.7 µM
  TGI: 39.5 µM
[46]
  GI50: 20.6 µM
  TGI: > 100 µM
[47]
  GI50: 15.4 µM
  TGI: 45.9 µM
[48]
  GI50: 15.6 µM
  TGI: 30.6 µM
[49]
  GI50: 16.7 µM
  TGI: 40.8 µM
[50]
  GI50: 2.32 µM
  TGI: 10.3 µM
[51]
  GI50: 0.714 µM
  TGI: 3.88 µM
[52]
  GI50: > 100 µM
  TGI: > 100 µM
[53]
  GI50: 5.53 µM
  TGI: > 100 µM
[54]
  GI50: 1.84 µM
  TGI: 54.3 µM
[55]
  GI50: 1.6 µM
  TGI: 3.97 µM
[56]
  GI50: 0.198 µM
  TGI: 2.61 µM
[57]
  GI50: 29.2 µM
  TGI: > 100 µM
[58]
  GI50: 15.4 µM
  TGI: 33 µM
[59]
  GI50: 4.82 µM
  TGI: 19.6 µM
